Experiments:
[1] = refractive index (Na D-line) (dimensionless); xn = mol fraction of the nth substance listed; conditions: 101 kPa, Liquid, Standard Abbe refractometry
[2] = xn = mol fraction of the nth substance listed; conditions: 101 kPa, Liquid; for viscosity: Capillary tube (Ostwald / Ubbelohde) method

CCC(O)CC [3-pentanol] + CCC(C)=O
Conditions | mass density, 298.15 K [kg/m3] | mass density, 308.15 K [kg/m3] | mass density, 318.15 K [kg/m3] | refractive index, 298.15 K | refractive index, 308.15 K | refractive index, 318.15 K | viscosity, 298.15 K [mPa·s] | viscosity, 308.15 K [mPa·s] | viscosity, 318.15 K [mPa·s]
[1], x2 = 0 | – | – | – | 1.4047 | 1.4029 | 1.3981 | – | – | –
[1], x2 = 0.0843 | – | – | – | 1.4032 | 1.4012 | 1.3965 | – | – | –
[1], x2 = 0.1622 | – | – | – | 1.4016 | 1.3995 | 1.3949 | – | – | –
[1], x2 = 0.2428 | – | – | – | 1.3999 | 1.3975 | 1.3929 | – | – | –
[1], x2 = 0.3505 | – | – | – | 1.3971 | 1.3944 | 1.3901 | – | – | –
[1], x2 = 0.4415 | – | – | – | 1.3945 | 1.3916 | 1.3873 | – | – | –
[1], x2 = 0.5584 | – | – | – | 1.3908 | 1.3876 | 1.3835 | – | – | –
[1], x2 = 0.6526 | – | – | – | 1.3876 | 1.3841 | 1.38 | – | – | –
[1], x2 = 0.7399 | – | – | – | 1.3846 | 1.3806 | 1.3767 | – | – | –
[1], x2 = 0.854 | – | – | – | 1.3803 | 1.376 | 1.372 | – | – | –
[1], x2 = 0.9383 | – | – | – | 1.3773 | 1.3725 | 1.3684 | – | – | –
[2], x2 = 0 | 815.79 | 806.91 | 797.66 | – | – | – | 4.625 | 2.864 | 1.902
[2], x2 = 0.0843 | 813.43 | 804.58 | 795.034 | – | – | – | 2.842 | 1.965 | 1.382
[2], x2 = 0.1622 | 811.5 | 802.6 | 792.888 | – | – | – | 2.007 | 1.476 | 0.9911
[2], x2 = 0.2428 | 809.72 | 800.57 | 790.723 | – | – | – | 1.494 | 1.151 | 0.7246
[2], x2 = 0.3505 | 807.45 | 798.07 | 788.175 | – | – | – | 1.084 | 0.869 | 0.5197
[2], x2 = 0.4415 | 805.82 | 796.23 | 786.285 | – | – | – | 0.86 | 0.717 | 0.417
[2], x2 = 0.5584 | 803.92 | 794.1 | 784.161 | – | – | – | 0.677 | 0.578 | 0.3306
[2], x2 = 0.6526 | 802.64 | 792.64 | 782.699 | – | – | – | 0.591 | 0.506 | 0.2938
[2], x2 = 0.7399 | 801.72 | 791.55 | 781.619 | – | – | – | 0.508 | 0.448 | 0.2919
[2], x2 = 0.854 | 800.8 | 790.31 | 780.165 | – | – | – | 0.445 | 0.396 | 0.297
[2], x2 = 0.9383 | 800.16 | 789.7 | 779.212 | – | – | – | 0.407 | 0.365 | 0.3106

From the NIST ThermoML archive (doi:10.1021/je901067c)
